Laboratory results published in the NIST ThermoML archive (doi:10.1016/j.tca.2013.03.017).

Assays:
[1] = molar heat capacity at constant pressure; xn = mol fraction of the nth substance listed; settings: 101 kPa, Liquid, Small sample (50 mg) DSC
[2] = xn = mol fraction of the nth substance listed; settings: 101 kPa, Liquid, Hot wire method

O=S1(=O)CCCC1 [sulfolane] + O
Settings | molar heat capacity at constant pressure, [1] [J/K/mol] | thermal conductivity, [2] [W/m/K]
303.15 K, x1 = 0.1 | 87.62 | 0.3861
303.15 K, x1 = 0.198 | 99.49 | 0.296
303.15 K, x1 = 0.299 | 112 | 0.2563
303.15 K, x1 = 0.397 | 123.4 | 0.2358
303.15 K, x1 = 0.493 | 133.8 | 0.2206
303.15 K, x1 = 0.6 | 144.9 | 0.2028
303.15 K, x1 = 0.699 | 154.4 | 0.1911
303.15 K, x1 = 0.8 | 163.7 | 0.1809
303.15 K, x1 = 0.899 | 172.4 | 0.1739
303.15 K, x1 = 1 | 181.5 | 0.1678
313.15 K, x1 = 0.1 | 88.47 | 0.3969
313.15 K, x1 = 0.198 | 100.9 | 0.2979
313.15 K, x1 = 0.299 | 113.9 | 0.2583
313.15 K, x1 = 0.397 | 125.6 | 0.2334
313.15 K, x1 = 0.493 | 136.4 | 0.22
313.15 K, x1 = 0.6 | 148 | 0.2012
313.15 K, x1 = 0.699 | 157.9 | 0.1896
313.15 K, x1 = 0.8 | 167.2 | 0.1797
313.15 K, x1 = 0.899 | 176 | 0.1719
313.15 K, x1 = 1 | 185.1 | 0.1656
323.15 K, x1 = 0.1 | 89.1 | 0.4026
323.15 K, x1 = 0.198 | 102.2 | 0.2965
323.15 K, x1 = 0.299 | 115.3 | 0.2558
323.15 K, x1 = 0.397 | 127.5 | 0.2316
323.15 K, x1 = 0.493 | 138.8 | 0.2167
323.15 K, x1 = 0.6 | 150.6 | 0.1993
323.15 K, x1 = 0.699 | 160.9 | 0.1883
323.15 K, x1 = 0.8 | 170.9 | 0.1788
323.15 K, x1 = 0.899 | 179.7 | 0.1715
323.15 K, x1 = 1 | 188.7 | 0.1634
333.15 K, x1 = 0.1 | 89.75 | 0.4084
333.15 K, x1 = 0.198 | 103.6 | 0.295
333.15 K, x1 = 0.299 | 117.3 | 0.2507
333.15 K, x1 = 0.397 | 129.9 | 0.2304
333.15 K, x1 = 0.493 | 141.5 | 0.2133
333.15 K, x1 = 0.6 | 153.8 | 0.1986
333.15 K, x1 = 0.699 | 164.5 | 0.1876
333.15 K, x1 = 0.8 | 174.3 | 0.1779
333.15 K, x1 = 0.899 | 183.3 | 0.1699
333.15 K, x1 = 1 | 192.3 | 0.1616
343.15 K, x1 = 0.1 | 90.42 | 0.4085
343.15 K, x1 = 0.198 | 104.5 | 0.2893
343.15 K, x1 = 0.299 | 118.5 | 0.2417
343.15 K, x1 = 0.397 | 131.7 | 0.2229
343.15 K, x1 = 0.493 | 143.5 | 0.2092
343.15 K, x1 = 0.6 | 155.8 | 0.1966
343.15 K, x1 = 0.699 | 166.4 | 0.1852
343.15 K, x1 = 0.8 | 176.4 | 0.1765
343.15 K, x1 = 0.899 | 185.6 | 0.1676
343.15 K, x1 = 1 | 194.3 | 0.1593
353.15 K, x1 = 0.1 | 91.42 | 0.4058
353.15 K, x1 = 0.198 | 106.2 | 0.287
353.15 K, x1 = 0.299 | 120.8 | 0.2399
353.15 K, x1 = 0.397 | 134 | 0.2185
353.15 K, x1 = 0.493 | 146.1 | 0.204
353.15 K, x1 = 0.6 | 158.8 | 0.1921
353.15 K, x1 = 0.699 | 169.6 | 0.1817
353.15 K, x1 = 0.8 | 179.9 | 0.173
353.15 K, x1 = 0.899 | 189.2 | 0.1657
353.15 K, x1 = 1 | 197.8 | 0.1581
